Reference: US20240382597A1, “FORMULATIONS OF ANTI-INFLAMMATORY AGENTS COMPRISING MSM WITH ENHANCED SOLUBILITY IN WATER” (LIVIONEX, Inc., priority 2021, published 2024)

Assays:
[1] = solubility in water of anti-inflammatory agents, alone and in formulations comprising MSM; type: physicochemical
Text: The increases in solubility in water of certain representative anti-inflammatory agents in formulations comprising MSM (about 5.4% w/w; range between 0.1 wt. % to about 15 wt. %, typically around 5%) are as follows: […]

[2] = at 79° F.; cited from earlier work
[3] = in formulations comprising MSM (about 5.4% w/w; range 0.1 wt. % to about 15 wt. %)
[4] = without MSM (starting value of the increase)

| solubility in water [1, 3] | solubility in water [1, 4] | SMILES | water solubility [2] [% w/v] |
| --- | --- | --- | --- |
| 50 mg per ml of water | 0.004 mg per ml of water | O=C(O)Cc1ccccc1Nc1c(Cl)cccc1Cl [Diclofenac, diclofenac] |  |
| ~150 mg per ml of water | insoluble | CC(C)Cc1ccc(C(C)C(=O)O)cc1 (stereo not drawn) [Ibuprofen, ibuprofen] |  |
|  |  | CS(C)(=O)=O [MSM, methylsulfonylmethane] | 34 |
| 0.013 mg per ml of water | 0.00065 mg per ml of water | COC(=O)c1ccccc1O [Methyl salicylate, methyl salicylate] |  |

| SMILES | solubility in water [1, 3] | solubility in water [1, 4] | water solubility [2] [% w/v] |
| --- | --- | --- | --- |
| C[C@@H]1C[C@H]2[C@@H]3CCC4=CC(=O)C=C[C@]4(C)[C@@]3(F)[C@@H](O)C[C@]2(C)[C@@]1(O)C(=O)CO [Dexamethsone, dexamethasone] | ~250 mg per ml of water | insoluble |  |
